Reference: ChEMBL document CHEMBL5385871, “Application and synthesis of thiazole ring in clinically approved drugs” (Eur J Med Chem, 2023)
Values after ≈ are worked out from the molar mass of the structure shown. Structures can show the parent of a compound that is named as a salt.

Tests used:
Escherichia coli = assay: Antibacterial activity against Escherichia coli assessed as bacterial growth inhibition; assay type: functional
Streptococcus pneumoniae = assay: Antibacterial activity against Streptococcus pneumoniae assessed as bacterial growth inhibition; assay type: functional
Pseudomonas aeruginosa = assay: Antibacterial activity against Pseudomonas aeruginosa assessed as bacterial growth inhibition; assay type: functional
[1] = Terminal half life in fasted Sprague-Dawley rat at 3 mg/kg, po measured for 24 hrs by LC-MS/MS analysis; assay type: ADME, organism-based; details: in vivo, read-out: beta t1/2 (converted)
[2] = Terminal half life in fasted cynomolgus monkey at 3 mg/kg, po measured for 24 hrs by LC-MS/MS analysis; assay type: ADME, organism-based, Macaca fascicularis; details: in vivo, read-out: beta t1/2 (converted)
Acetylcholinesterase = Acetylcholinesterase (Homo sapiens, UniProt P22303)
Acetylcholinesterase, sequence (P22303 whole entry): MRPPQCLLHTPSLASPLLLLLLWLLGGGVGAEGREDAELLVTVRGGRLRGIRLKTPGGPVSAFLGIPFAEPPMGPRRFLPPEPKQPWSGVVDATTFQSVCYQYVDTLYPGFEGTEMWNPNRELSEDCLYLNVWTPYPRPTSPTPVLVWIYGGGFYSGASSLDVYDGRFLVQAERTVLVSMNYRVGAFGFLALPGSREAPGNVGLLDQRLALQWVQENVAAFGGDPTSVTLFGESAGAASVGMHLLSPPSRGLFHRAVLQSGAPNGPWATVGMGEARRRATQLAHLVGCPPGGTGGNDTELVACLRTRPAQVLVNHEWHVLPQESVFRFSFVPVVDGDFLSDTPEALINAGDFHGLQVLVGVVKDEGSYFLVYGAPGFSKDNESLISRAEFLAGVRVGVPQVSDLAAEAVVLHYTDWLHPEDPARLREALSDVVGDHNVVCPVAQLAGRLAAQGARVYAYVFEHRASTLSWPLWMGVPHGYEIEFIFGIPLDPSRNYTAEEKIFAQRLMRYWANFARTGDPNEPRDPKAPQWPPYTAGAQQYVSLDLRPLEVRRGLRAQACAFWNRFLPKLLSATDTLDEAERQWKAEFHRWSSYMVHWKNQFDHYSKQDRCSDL
Description: Inhibition of AChE (unknown origin)

Haemophilus influenzae = assay: Antibacterial activity against Haemophilus influenzae assessed as bacterial growth inhibition; assay type: functional
Streptococcus pyogenes = assay: Antibacterial activity against Streptococcus pyogenes assessed as bacterial growth inhibition; assay type: functional
[3] = Inhibition of PI3Kalpha H1047R mutant (unknown origin); parameters: species or system Homo sapiens
[4] = molecular target: T1, Beta-2 adrenergic receptor (Homo sapiens, UniProt P07550); assay: Inhibition of beta-2 adrenoceptor (unknown origin)
T1 sequence (P07550 whole entry): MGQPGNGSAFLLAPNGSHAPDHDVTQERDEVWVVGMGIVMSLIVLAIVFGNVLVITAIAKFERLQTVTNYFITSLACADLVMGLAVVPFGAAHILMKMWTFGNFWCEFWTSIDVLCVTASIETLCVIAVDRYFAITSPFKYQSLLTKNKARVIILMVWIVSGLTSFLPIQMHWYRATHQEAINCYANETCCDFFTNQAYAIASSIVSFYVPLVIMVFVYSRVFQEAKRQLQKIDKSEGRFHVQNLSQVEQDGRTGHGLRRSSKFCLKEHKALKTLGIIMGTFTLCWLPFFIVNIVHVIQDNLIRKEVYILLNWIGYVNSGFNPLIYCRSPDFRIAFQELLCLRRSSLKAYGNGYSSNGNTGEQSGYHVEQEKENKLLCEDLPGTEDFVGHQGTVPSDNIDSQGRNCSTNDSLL

[5] = molecular target: T2, Beta-1 adrenergic receptor (Homo sapiens, UniProt P08588); assay: Inhibition of beta-1 adrenoceptor (unknown origin)
T2 sequence (P08588 whole entry): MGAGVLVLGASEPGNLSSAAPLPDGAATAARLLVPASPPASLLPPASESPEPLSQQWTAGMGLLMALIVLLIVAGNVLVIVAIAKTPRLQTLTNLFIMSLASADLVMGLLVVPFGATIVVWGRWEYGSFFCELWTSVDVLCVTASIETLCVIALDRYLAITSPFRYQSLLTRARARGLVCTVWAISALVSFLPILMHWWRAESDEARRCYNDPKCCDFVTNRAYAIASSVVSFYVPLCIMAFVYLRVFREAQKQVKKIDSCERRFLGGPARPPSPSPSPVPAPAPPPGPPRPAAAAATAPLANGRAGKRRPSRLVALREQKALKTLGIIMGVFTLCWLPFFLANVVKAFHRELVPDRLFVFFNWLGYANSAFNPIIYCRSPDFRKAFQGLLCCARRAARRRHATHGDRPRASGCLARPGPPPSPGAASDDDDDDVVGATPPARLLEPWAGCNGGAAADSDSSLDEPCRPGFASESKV

BaF3 = assay: Induction of cell proliferation of mouse BaF3 cells expressing full-length human TPO receptor by WST-1/1-methoxy PMS assay; assay type: functional, cell-based
[6] = Induction of colony formation of human megakaryocyte from human cord blood CD34-positive cells measured after 10 to 12 days; assay type: functional, cell-based
Staphylococcus aureus = assay: Antibacterial activity against Staphylococcus aureus assessed as bacterial growth inhibition; assay type: functional
[7] = test system: Staphylococcus epidermidis; assay: Antibacterial activity against Staphylococcus epidermidis assessed as bacterial growth inhibition; assay type: functional
Bacteria = assay: Antibacterial activity against aerobic gram-negative bacteria assessed as bacterial growth inhibition; assay type: functional
Enterobacteriaceae = assay: Antibacterial activity against Enterobacteriaceae assessed as bacterial growth inhibition; assay type: functional
[8] = Antibacterial activity against non-fermentative bacteria assessed as bacterial growth inhibition
Proteus mirabilis = assay: Antibacterial activity against Proteus mirabilis assessed as bacterial growth inhibition; assay type: functional
Bacteroides fragilis = assay: Antibacterial activity against Bacteroides fragilis assessed as bacterial growth inhibition; assay type: functional
Clostridioides difficile = assay: Antibacterial activity against Clostridium difficile assessed as bacterial growth inhibition; assay type: functional
Neisseria gonorrhoeae = assay: Antibacterial activity against Neisseria gonorrhoeae assessed as bacterial growth inhibition; assay type: functional
Moraxella catarrhalis = assay: Antibacterial activity against Moraxella catarrhalis assessed as bacterial growth inhibition; assay type: functional
K562 = assay: cells; details: Homo sapiens, K562, 72 h
Description: Antiproliferative activity against human K562 cells incubated for 72 hrs by MTT assay

[9] = Oral bioavailability in fasted Sprague-Dawley rat at 10 mg/kg administered via gavage measured for 10 hrs by LC/MS/MS analysis; assay type: ADME, organism-based; details: in vivo
in vivo [10] = details: Sprague-Dawley, rat, iv, 10 mg/kg
Description: Half life in fasted Sprague-Dawley rat at 10 mg/kg, iv measured for 10 hrs by LC/MS/MS analysis

WiDr = assay: cells; details: Homo sapiens, 72 h
Description: Antiproliferative activity against human WiDr cells incubated for 72 hrs by MTT assay

in vivo [11] = details: Sprague-Dawley, rat, po, 10 mg/kg
Description: Half life in fasted Sprague-Dawley rat at 10 mg/kg, po administered via gavage measured for 10 hrs by LC/MS/MS analysis

[12] = molecular target: Beta-3 adrenergic receptor (Homo sapiens, UniProt P13945); assay: Agonist activity at human beta-3 adrenoceptor expressed in CHO cells assessed as cAMP accumulation incubated for 10 mins by radioimmunoassay; assay type: functional, cell-based
Beta-3 adrenergic receptor, sequence (P13945 whole entry): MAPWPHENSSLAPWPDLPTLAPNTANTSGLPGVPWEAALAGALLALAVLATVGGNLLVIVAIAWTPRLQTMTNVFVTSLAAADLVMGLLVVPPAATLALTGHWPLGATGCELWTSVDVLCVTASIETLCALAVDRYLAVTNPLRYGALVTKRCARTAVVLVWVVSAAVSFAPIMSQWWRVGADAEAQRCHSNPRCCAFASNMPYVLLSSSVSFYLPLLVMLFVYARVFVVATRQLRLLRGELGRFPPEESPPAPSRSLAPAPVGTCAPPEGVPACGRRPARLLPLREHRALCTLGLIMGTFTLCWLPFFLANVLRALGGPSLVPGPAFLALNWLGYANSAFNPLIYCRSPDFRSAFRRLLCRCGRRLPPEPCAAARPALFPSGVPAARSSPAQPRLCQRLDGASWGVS

Urinary bladder = assay: Ex vivo relaxant activity against CCh-induced contraction in rat urinary bladder smooth muscle strips relative to control; assay type: functional
[13] = molecular target: T1, Beta-2 adrenergic receptor; assay: Agonist activity at human beta-2 adrenoceptor expressed in CHO cells assessed as cAMP accumulation incubated for 10 mins by radioimmunoassay; assay type: functional, cell-based
[14] = molecular target: T2, Beta-1 adrenergic receptor; assay: Agonist activity at human beta-1 adrenoceptor expressed in CHO cells assessed as cAMP accumulation incubated for 10 mins by radioimmunoassay; assay type: functional, cell-based
[15] = Inhibition of proliferation in Giardia lamblia trophozoites; assay type: functional, Giardia duodenalis
D(3) dopamine receptor = D(3) dopamine receptor (Homo sapiens, UniProt P35462)
D(3) dopamine receptor, sequence (P35462 whole entry): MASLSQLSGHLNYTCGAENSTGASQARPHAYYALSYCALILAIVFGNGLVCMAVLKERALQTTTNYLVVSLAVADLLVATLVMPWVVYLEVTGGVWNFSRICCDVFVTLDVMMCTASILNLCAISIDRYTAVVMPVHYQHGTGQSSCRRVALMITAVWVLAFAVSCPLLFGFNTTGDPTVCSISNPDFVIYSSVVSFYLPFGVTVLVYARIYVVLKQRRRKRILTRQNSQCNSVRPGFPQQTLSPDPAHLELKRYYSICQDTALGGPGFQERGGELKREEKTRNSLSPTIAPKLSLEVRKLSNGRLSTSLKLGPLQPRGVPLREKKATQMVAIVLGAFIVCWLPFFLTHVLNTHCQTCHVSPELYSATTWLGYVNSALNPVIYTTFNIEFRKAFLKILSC
Description: Binding affinity to human D3 receptor assessed as inhibition constant

[16] = Inhibition of P-gp-mediated extrusion of [14C]saquinavir in porcine BCEC cells measured after 5 mins by scintillation counting method; assay type: cell-based, Sus scrofa; details: brain capillary endothelial cell

CO/N=C(\C(=O)N[C@@H]1C(=O)N2C(C(=O)[O-])=C(C[N+]3(C)CCCC3)CS[C@H]12)c1csc(N)n1
MIC (Escherichia coli): ≤ 0.007 µg/mL | MIC (Streptococcus pneumoniae): 7 ng/mL (≈ 0.0146 µM) | MIC (Pseudomonas aeruginosa): > 0.06 µg/mL

COc1ccc2c(O[C@@H]3C[C@H]4C(=O)N[C@]5(C(=O)NS(=O)(=O)C6CC6)C[C@H]5/C=C\CCCCN(C)C(=O)[C@@H]4C3)cc(-c3nc(C(C)C)cs3)nc2c1C
half-life [1]: 90 min | half-life [2]: 246 min

COc1cc(O)c(C(=O)Nc2nc(C(=O)NCCN(C(C)C)C(C)C)cs2)cc1OC
IC50 (Acetylcholinesterase): 1790 nM

C=CC1=C(C(=O)O)N2C(=O)[C@@H](NC(=O)/C(=N\O)c3csc(N)n3)[C@H]2SC1
MIC (Streptococcus pneumoniae): 6 ng/mL (≈ 0.0152 µM) | MIC (Haemophilus influenzae): 0.05 µg/mL (≈ 0.126 µM) | MIC (Streptococcus pyogenes): ≤ 4 ng/mL

Cc1nc(NC(=O)N2CCC[C@H]2C(N)=O)sc1-c1ccnc(C(C)(C)C(F)(F)F)c1 [ALPELISIB]
IC50 [3]: ~4 nM

CC(C)(C)NCC(O)CSc1nc(-c2ccc(C(N)=O)s2)cs1 (centres undefined) [AROTINOLOL]
Ki [4]: 0.55 nM | Ki [5]: 0.182 nM

O=C(Nc1nc(-c2cc(Cl)cs2)c(N2CCN(C3CCCCC3)CC2)s1)c1cnc(N2CCC(C(=O)O)CC2)c(Cl)c1 [AVATROMBOPAG]
EC50 (BaF3): 3.3 nM | EC50 [6]: 25 nM

C[C@H]1[C@H](NC(=O)/C(=N\OC(C)(C)C(=O)O)c2csc(N)n2)C(=O)N1S(=O)(=O)O [AZTREONAM]
MIC (Staphylococcus aureus): ≥ 8 µg/mL | MIC [7]: 8 µg/mL (≈ 18.4 µM) | MIC (Streptococcus pyogenes): ≥ 8000 ng/mL

CC(C)(O/N=C(\C(=O)N[C@@H]1C(=O)N2C(C(=O)[O-])=C(C[N+]3(CCNC(=O)c4ccc(O)c(O)c4Cl)CCCC3)CS[C@H]12)c1csc(N)n1)C(=O)O [CEFIDEROCOL]
MIC (Bacteria): < 2 µg/mL | MIC (Enterobacteriaceae): < 2 µg/mL | MIC [8]: < 2 µg/mL

C=CC1=C(C(=O)O)N2C(=O)[C@@H](NC(=O)/C(=N\OCC(=O)O)c3csc(N)n3)[C@H]2SC1 [CEFIXIME]
MIC (Proteus mirabilis): ≤ 8 ng/mL | MIC (Escherichia coli): 0.015 µg/mL (≈ 0.0331 µM) | MIC (Haemophilus influenzae): 0.004 µg/mL (≈ 0.00882 µM)

CN(C)CCn1nnnc1SCC1=C(C(=O)O)N2C(=O)[C@@H](NC(=O)Cc3csc(N)n3)[C@H]2SC1 [CEFOTIAM]
MIC (Bacteroides fragilis): ≥ 16 µg/mL | MIC (Staphylococcus aureus): 0.25 µg/mL (≈ 0.476 µM) | MIC (Clostridioides difficile): > 128 µg/mL

COCC1=C(C(=O)O)N2C(=O)[C@@H](NC(=O)/C(=N\OC)c3csc(N)n3)[C@H]2SC1 [CEFPODOXIME]
MIC (Neisseria gonorrhoeae): 4 ng/mL (≈ 0.00936 µM) | MIC (Haemophilus influenzae): ≤ 0.03 µg/mL | MIC (Streptococcus pyogenes): ≤ 4 ng/mL

Nc1nc(/C(=C/CC(=O)O)C(=O)N[C@@H]2C(=O)N3C(C(=O)O)=CCS[C@H]23)cs1 [CEFTIBUTEN]
MIC (Streptococcus pneumoniae): 500 ng/mL (≈ 1.22 µM) | MIC (Haemophilus influenzae): 0.015 µg/mL (≈ 0.0365 µM) | MIC (Moraxella catarrhalis): 0.5 µg/mL (≈ 1.22 µM)

Cc1nc(Nc2ncc(C(=O)Nc3c(C)cccc3Cl)s2)cc(N2CCN(CCO)CC2)n1.O [DASATINIB]
IC50 (K562): 52 nM | bioavailability [9]: 27% | half-life at 10 h (in vivo [10]): 198 min | IC50 (WiDr): < 1 nM | half-life at 10 h (in vivo [11]): 186 min

Nc1nc(CC(=O)Nc2ccc(CCNC[C@H](O)c3ccccc3)cc2)cs1 [MIRABEGRON]
EC50 [12]: 22.4 nM | Emax (Urinary bladder): 94% | EC50 [13]: ≥ 10 µM | EC50 [14]: ≥ 10 µM

CC(=O)Oc1ccccc1C(=O)Nc1ncc([N+](=O)[O-])s1 [NITAZOXANIDE]
IC50 [15]: 2400 nM

CCCN[C@H]1CCc2nc(N)sc2C1 [PRAMIPEXOLE DIHYDROCHLORIDE]
Ki (D(3) dopamine receptor): 0.5 nM

CC(C)c1nc(CN(C)C(=O)N[C@H](C(=O)N[C@@H](Cc2ccccc2)C[C@H](O)[C@H](Cc2ccccc2)NC(=O)OCc2cncs2)C(C)C)cs1 [RITONAVIR]
IC50 [16]: 200 nM
